Where no end group is shown, it is not given here. [ ]: non-standard residue; d: D form. The star is where a group is joined. Biotin = O=C1N[C@H]2[C@H](CS[C@H]2CCCCC(=O)*)N1; Cit = NC(=O)NCCC[C@H](N)C(=O)O

Consider seven substances from paper PMC11420952, “A Chemical Approach to Assess the Impact of Post-translational Modification on MHC Peptide Binding and Effector Cell Engagement” (ACS Chemical Biology, 2024).

The target in test [1] is T1, H-2K^b (Mus musculus, UniProt P01901).
T1 construct: endogenous in cells; host or cells: RMA-S cells (TAP-deficient)
T1 sequence (P01901 22-369): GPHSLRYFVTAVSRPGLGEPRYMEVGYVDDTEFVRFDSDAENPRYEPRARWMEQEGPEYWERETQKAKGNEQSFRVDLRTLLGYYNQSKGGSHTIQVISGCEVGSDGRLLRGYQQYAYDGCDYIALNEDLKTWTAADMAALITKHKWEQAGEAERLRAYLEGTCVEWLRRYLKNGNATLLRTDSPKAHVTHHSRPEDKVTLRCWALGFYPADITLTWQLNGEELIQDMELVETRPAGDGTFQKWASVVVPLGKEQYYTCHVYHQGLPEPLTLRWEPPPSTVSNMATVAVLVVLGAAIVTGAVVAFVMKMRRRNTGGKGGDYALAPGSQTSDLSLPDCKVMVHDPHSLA
T1 sequence (P01887 21-119 partner): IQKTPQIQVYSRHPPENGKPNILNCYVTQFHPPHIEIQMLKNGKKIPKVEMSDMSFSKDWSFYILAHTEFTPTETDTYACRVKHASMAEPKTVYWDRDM
Nature of the test: cell-based. Particulars: RMA-S cells, peptide 20 μM, APC anti-mouse H-2K^b antibody, flow cytometry; for effect of PTM on MHC binding versus the unmodified peptide (ovaWT or mbpWT): Figures 2B and 3B, mean ± SD n = 4, two-tailed t-test; for effect of PTM on MHC binding versus sarsWT: Figure 1C, mean ± SD n = 3, two-tailed t-test. Background: Flow cytometry measures light scatter and fluorescence of single cells or particles in a stream.

The subject of test [2] is OVA specific TCR of B3Z T cell hybridoma. Nature of the test: B3Z T cell activation with peptide-loaded RMA-S cells (NFAT-LacZ / CPRG). Type of test: cell-based. Conditions: RMA-S cells with peptide and B3Z T cells overnight, effector to target 1:1; β-galactosidase by CPRG, absorbance 570 nm; Figure 2C, mean ± SD n = 4. From the text: To assess the impact of ovaWT PTMs on TCR recognition, we utilized the B3Z T cell hybridoma cell line that contains an OVA specific TCR along with a NFAT-LacZ reporter gene that encodes for β-galactosidase on an IL-2 inducible promoter.[79] Upon B3Z recognition of the OVA pMHC complex on RMA-S cells, IL-2 production promotes β-galactosidase expression, which can hydrolyze chlorophenol red-β-D-galactopyranoside (CPRG), and the resulting color change is representative of activation levels.
10^5 RMA-S cells were seeded in a treated 96 well plate at 37 °C overnight. The following day the culture media was replaced with media containing indicated concentration of peptide along with 10^5 B3Z cells in culture media and coincubated overnight. Cells were then spun down at 500xg for 5 min and washed with 1X PBS a total of two times. Lysis buffer containing 0.2% saponin, 500 μM CPRG reagent, 100 mM MgCl2, and 100 mM β-mercaptoethanol in 1X PBS was added to each well. After 2–4 h absorbance 570 was recorded using a BioTek Epoch 2 microplate reader.

Test [3] concerns MHC on RMA-S cells. Nature of the test: Mild acid elution of MHC-bound peptides from RMA-S cells and mass spectrometry. Type of test: cell-based. Particulars: 10^9 RMA-S cells, 20 μM peptide, mild acid elution pH 3.3, LC-MS/MS (LTQ-Orbitrap); Figures S5-S8. As for the experimental part: We then sought to detect changes in peptide binding via a competition assay using the parent cell line (RMA) that has a competent TAP system. To this end, we performed a competition assay using the panel of OVA peptides barring PTM mark in live RMA cells. The assay was performed by coincubating RMA cells individually with PTM-modified peptides and also ovaFl (SIINFEK(FITC)L), in which the […] of lysine is modified with fluoresceine. ovaFl has long been utilized by the field to interrogate binding of untagged peptides for MHC molecules. A decrease in cellular fluorescence should indicate higher association levels with MHC molecules, thereby informing on the relative affinity of the PTM-modified molecules. Critically, this assay retains MHC molecules within a physiologically relevant context and this alternative readout should complement the RMA-S MHC stabilization assay. […]
The emitter tip of the analytical column was laser-pulled to produce an opening of 2–5 μm, and a 2 mm kasil frit was used in place of the irregular reverse phase (RP) resin. […] If the same precursor ion was selected three times or was detected twice within a 20-s repeat duration, the ion was dynamically excluded for 15 s. […]

Test [4] has as its target T1, H-2K^b. Particulars: reported in the literature; cited from earlier work.

With “Biotinylated Lysine SIINFKEL: ovaWT with biotinylated lysine (SIINFK(Biotin)EL; not fully specified)”, the “effect of PTM on MHC binding versus the unmodified peptide (ovaWT or mbpWT)” value in test [1] is “binding levels are altered but the change is not significant”. Further, the “effect of PTM on TCR recognition (B3Z activation) versus ovaWT” value in test [2] was “reduction in TCR recognition”.
In the case of “Citrullinated ESIVRFPNI: sarsWT with arginine to citrulline (R5) (ESIV[Cit]FPNI)”, the “effect of PTM on MHC binding versus sarsWT” value in test [1] is given as “no significant effect”.
The same measure, in the same setting: then “N-Acetyl ESIVRFPNI [sarsWT with N-terminus acetylation]”, with “completely disrupted MHC binding”.
With “Phosphoserine SIINFEKL: ovaWT with phosphorylated N-terminal serine”, in test [1], the “effect of PTM on MHC binding versus the unmodified peptide (ovaWT or mbpWT)” value is “significant decrease in MHC binding”. In addition, the “effect of PTM on TCR recognition (B3Z activation) versus ovaWT” value in test [2] is listed as “reduction in TCR recognition”.
For SIINFEKL [ovaWT, reference compound], the “detection of MHC-bound peptide after elution from live RMA-S cells” value in test [3] is reported as “clearly detected”.
On to SNFVSAGI [cntPEP], for which the “interaction with H-2K^b (negative control)” value in test [4] is “not interact appreciably”.
In the case of “ovaK7m3: ovaWT with trimethylation of K7”, the “effect of PTM on MHC binding versus the unmodified peptide (ovaWT or mbpWT)” value in test [1] is listed as “does not disrupt binding”. The “detection of MHC-bound peptide after elution from live RMA-S cells” value in test [3] is reported as “detected by mass spectrometry”.
